Data reported in PMC11519908, “Luminescent Ln(III)-Metallopeptide Sensors for Monitoring Pseudomonas aeruginosa Elastase B Activity in Complex Biological Media” (ACS Sensors, 2024).

Legend:
LasB = LasB (Pseudomonas aeruginosa, UniProt P14756); settings: 1, 5, 7.5, 10 µM probe, 1 mM CaCl2, 60.6 nM (2 µg/mL) LasB, 10 mM HEPES pH 8.0, 37 °C, time-gated emission every 15 min for 10 h, fit to hit-and-run model (Dynafit)
E. coli supernatant = settings: 10 µM probe, 1 mM CaCl2, HEPES buffer, 10 µL E. coli supernatant, 20 h at 37 °C, time-gated emission
[1] = tested on: supernatant from P. aeruginosa strain producing LasB; format: biochemical, Pseudomonas aeruginosa; settings: P1[Tb]: 0.5 mM probe, 50 mM CaCl2, HEPES buffer, 9 µL supernatant, RT, 1 h before injection
[2] = Luminescence of probe in the presence of H2O2; format: physicochemical; settings: 5 µM probe, 0.5 mM H2O2, HEPES buffer pH 8, 37 °C, time-gated emission
[3] = tested on: supernatant from the P. aeruginosa strain producing LasB; experiment: Luminescence of probe with LasB-secreting P. aeruginosa supernatant with and without EDTA; format: biochemical, Pseudomonas aeruginosa
[4] = Luminescence of probe in the presence of glutathione; format: physicochemical; settings: 5 µM probe, 100 µM GSH, HEPES buffer pH 8, 37 °C, time-gated emission
[5] = Luminescence of probe in the presence of pyocyanin and P. aeruginosa supernatant; format: physicochemical

Chain of LasB (P14756 198-498): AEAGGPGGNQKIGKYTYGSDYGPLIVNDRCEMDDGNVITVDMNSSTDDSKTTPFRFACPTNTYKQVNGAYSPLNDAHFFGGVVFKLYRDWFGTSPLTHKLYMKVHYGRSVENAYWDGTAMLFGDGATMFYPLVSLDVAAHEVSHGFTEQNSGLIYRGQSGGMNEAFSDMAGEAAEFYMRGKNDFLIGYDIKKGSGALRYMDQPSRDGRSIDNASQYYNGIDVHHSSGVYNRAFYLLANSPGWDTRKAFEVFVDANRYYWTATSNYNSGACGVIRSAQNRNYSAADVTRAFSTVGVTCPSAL

## EGLAEW [P1[Tb], green-emitting metallopeptide: DO3A-Tb(III) complex at N-terminus of EGLAEW, Trp as sensitizing unit]
LasB
  apparent rate constant ksub (equivalent to specificity constant kcat/Km): 0.438 ± 0.007 μM^–1min^–1
E. coli supernatant
  change of luminescence with E. coli supernatant: no changes in the luminescence
[1]
  cleavage of probe by wild-type P. aeruginosa supernatant (HPLC-MS): cleaved at the G-L bond
[2]
  change of luminescence 20 h after addition of H2O2: remained constant
[3]
  reduction of luminescence 3 h after supernatant addition, in the absence of EDTA: approximately 90%
  reduction of luminescence 3 h after supernatant addition, with EDTA: approximately 30%
other
  luminescence response to P. aeruginosa supernatant added after incubation in 1.2% FBS: gradual reduction in the luminescence emission
10 µM probe, 1.2% v/v fetal bovine serum in HEPES buffer, 37 °C, time-gated emission every hour for 12 h
  time of stable luminescence in 1.2% FBS: at least 12 h
[4]
  change of luminescence 20 h after addition of glutathione: remained constant
[5]
  probe activity toward P. aeruginosa supernatant in the presence of pyocyanin: remained active
[5]; 5 µM probe, 1 µM pyocyanin, HEPES buffer, 37 °C, time-gated emission
  reduction of emission band intensity on incubation with pyocyanin: approximately 20%
